Assay results from PubChem BioAssay (NCI).
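48-hour exposure; five concentrations; linearly interpolated endpoints. GI50: concentration for 50% inhibition of growth. The concentration for full growth arrest is given as TGI.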

Columns and labels:
Assay in all cases: NCI anticancer screen, dose series, 48 h
CCRF-CEM leukemia = tested on: CCRF-CEM leukemia
HT29 colon = tested on: HT29 colon
K-562 leukemia = tested on: K-562 leukemia
KM12 colon = tested on: KM12 colon
NCI-H460 lung = tested on: NCI-H460 lung
NCI-H522 lung = tested on: NCI-H522 lung
RPMI-8226 leukemia = tested on: RPMI-8226 leukemia
UACC-257 melanoma = tested on: UACC-257 melanoma
HOP-92 NSCLC = tested on: HOP-92 NSCLC

SMILES: CC(=O)c1sc(-c2nc(C)c(C(=O)/C=C\c3ccc(/C=C\C(=O)c4sc(-c5nc(C)c(C(C)=O)s5)nc4C)cc3)s2)nc1C
- TGI (CCRF-CEM leukemia): > 100 µM
- TGI (HT29 colon): > 100 µM
- TGI (K-562 leukemia): > 100 µM
- TGI (KM12 colon): > 100 µM
- TGI (NCI-H460 lung): > 100 µM
- TGI (NCI-H522 lung): > 100 µM
- TGI (RPMI-8226 leukemia): > 100 µM
- TGI (UACC-257 melanoma): > 100 µM

SMILES: CC1(C)O/C(=C\c2ccccc2)C(=O)/C(=C/c2ccccc2)O1
- TGI (CCRF-CEM leukemia): 44.4 µM
- TGI (HOP-92 NSCLC): > 100 µM
- TGI (HT29 colon): > 100 µM
- TGI (K-562 leukemia): > 100 µM
- TGI (KM12 colon): > 100 µM
- TGI (NCI-H460 lung): > 100 µM
- TGI (NCI-H522 lung): 22.5 µM
- TGI (RPMI-8226 leukemia): 54.6 µM
- TGI (UACC-257 melanoma): 71.7 µM

SMILES: CN[C@@H](C)[C@H](NC)c1ccccc1
- TGI (CCRF-CEM leukemia): > 100 µM
- TGI (HOP-92 NSCLC): > 100 µM
- TGI (HT29 colon): > 100 µM
- TGI (K-562 leukemia): > 100 µM
- TGI (KM12 colon): > 100 µM
- TGI (NCI-H522 lung): > 100 µM
- TGI (RPMI-8226 leukemia): > 100 µM
- TGI (UACC-257 melanoma): > 100 µM

SMILES: CCOC(=N)CC(=O)Nc1cccc(C)c1C
- TGI (CCRF-CEM leukemia): > 100 µM
- TGI (HT29 colon): > 100 µM
- TGI (KM12 colon): > 100 µM
- TGI (NCI-H460 lung): > 100 µM
- TGI (NCI-H522 lung): > 100 µM
- TGI (UACC-257 melanoma): > 100 µM

SMILES: Cc1cc(NS(=O)(=O)c2ccc(Nc3c4ccccc4nc4c(C(=O)NCCN(C)C)cccc34)cc2)no1
- TGI (CCRF-CEM leukemia): 11.1 µM
- TGI (HT29 colon): > 100 µM
- TGI (K-562 leukemia): > 100 µM
- TGI (KM12 colon): > 100 µM
- TGI (NCI-H460 lung): 26.6 µM
- TGI (NCI-H522 lung): 4.56 µM

SMILES: COc1cccc(-n2c3nc(=O)n(C)c(=O)c-3nc3ccccc32)c1
- TGI (CCRF-CEM leukemia): 79.1 µM
- TGI (HOP-92 NSCLC): 72.5 µM
- TGI (HT29 colon): 40.8 µM
- TGI (K-562 leukemia): > 100 µM
- TGI (KM12 colon): > 100 µM
- TGI (NCI-H460 lung): 33.4 µM
- TGI (NCI-H522 lung): 97.5 µM
- TGI (RPMI-8226 leukemia): > 100 µM
- TGI (UACC-257 melanoma): 33.8 µM

SMILES: COc1ccc(C2c3cc(OC)c(OC)cc3C(Cc3ccc([N+](=O)[O-])cc3)C2c2ccc([N+](=O)[O-])cc2)cc1OC (stereo unspecified)
- TGI (CCRF-CEM leukemia): > 100 µM
- TGI (HOP-92 NSCLC): > 100 µM
- TGI (HT29 colon): > 100 µM
- TGI (K-562 leukemia): > 100 µM
- TGI (KM12 colon): > 100 µM
- TGI (NCI-H460 lung): > 100 µM
- TGI (NCI-H522 lung): > 100 µM
- TGI (RPMI-8226 leukemia): > 100 µM
- TGI (UACC-257 melanoma): > 100 µM

SMILES: Nc1ccn(C2(CO)C=C(CO)C(O)C2O)c(=O)n1 (stereo unspecified)
- TGI (K-562 leukemia): > 25.8 µM
- TGI (KM12 colon): > 25.8 µM
- TGI (NCI-H460 lung): > 25.8 µM
- TGI (NCI-H522 lung): > 25.8 µM
- TGI (RPMI-8226 leukemia): > 25.8 µM
- TGI (UACC-257 melanoma): > 25.8 µM

SMILES: COC(=O)/C(C)=C/[N+](=O)[O-]
- TGI (CCRF-CEM leukemia): 6.48 µM
- TGI (HOP-92 NSCLC): 22.8 µM
- TGI (HT29 colon): 43.2 µM
- TGI (K-562 leukemia): 13.2 µM
- TGI (KM12 colon): 32.9 µM
- TGI (NCI-H460 lung): 54.8 µM
- TGI (RPMI-8226 leukemia): 7.36 µM
- TGI (UACC-257 melanoma): 29.3 µM

SMILES: O=S1OC2(c3ccccc3-c3ccccc32)c2ccccc21 (stereo unspecified)
- TGI (CCRF-CEM leukemia): > 100 µM
- TGI (HT29 colon): > 100 µM
- TGI (K-562 leukemia): > 100 µM
- TGI (KM12 colon): > 100 µM
- TGI (NCI-H460 lung): > 100 µM
- TGI (NCI-H522 lung): > 100 µM
- TGI (RPMI-8226 leukemia): > 100 µM
- TGI (UACC-257 melanoma): > 100 µM

SMILES: C1C[OH+]CCNCC[OH+]CC[OH+]CCN1.[Cl-].[Pt+4]
- GI50 (CCRF-CEM leukemia): 51.4 µM
- TGI (CCRF-CEM leukemia): > 100 µM
- GI50 (HOP-92 NSCLC): > 100 µM
- TGI (HOP-92 NSCLC): > 100 µM
- GI50 (HT29 colon): > 100 µM
- TGI (HT29 colon): > 100 µM
- GI50 (K-562 leukemia): > 100 µM
- TGI (K-562 leukemia): > 100 µM
- GI50 (KM12 colon): > 100 µM
- TGI (KM12 colon): > 100 µM
- GI50 (NCI-H460 lung): > 100 µM
- TGI (NCI-H460 lung): > 100 µM
- GI50 (NCI-H522 lung): > 100 µM
- TGI (NCI-H522 lung): > 100 µM
- GI50 (RPMI-8226 leukemia): > 100 µM
- TGI (RPMI-8226 leukemia): > 100 µM
- GI50 (UACC-257 melanoma): > 100 µM
- TGI (UACC-257 melanoma): > 100 µM

SMILES: CCCCOC(=O)NC(=O)c1cn(CCCOC(=O)NCCCCCCNC(=O)OCCCn2cc(C(=O)NC(=O)OCCCC)c(=O)[nH]c2=O)c(=O)[nH]c1=O
- TGI (HOP-92 NSCLC): > 100 µM
- TGI (HT29 colon): > 100 µM
- TGI (K-562 leukemia): > 100 µM
- TGI (KM12 colon): > 100 µM
- TGI (NCI-H460 lung): > 100 µM
- TGI (NCI-H522 lung): > 100 µM
- TGI (RPMI-8226 leukemia): > 100 µM
- TGI (UACC-257 melanoma): > 100 µM

SMILES: C=C1C[C@]23CCC4C(C)(C)C(=O)CC[C@]4(C)C2C[C@H]1C(O)C3=O (stereo partly specified)
- TGI (CCRF-CEM leukemia): > 75 µM
- TGI (K-562 leukemia): > 75 µM
- TGI (KM12 colon): > 75 µM
- TGI (NCI-H522 lung): > 75 µM
- TGI (RPMI-8226 leukemia): > 75 µM
- TGI (UACC-257 melanoma): > 75 µM

SMILES: O=C1CC2C(=O)N(Cc3ccccc3)C1C=C2S(=O)(=O)c1ccccc1 (stereo unspecified)
- TGI (CCRF-CEM leukemia): > 100 µM
- TGI (HOP-92 NSCLC): > 100 µM
- TGI (HT29 colon): > 100 µM
- TGI (K-562 leukemia): > 100 µM
- TGI (KM12 colon): > 100 µM
- TGI (NCI-H460 lung): > 100 µM
- TGI (NCI-H522 lung): > 100 µM
- TGI (UACC-257 melanoma): > 100 µM

SMILES: CC(C)CCCC(C)[C@H]1CCC2[C@H]3C(CC[C@@]21C)[C@@]1(C)CCC=C[C@]12C[C@@H]2[C@@H]3O (stereo partly specified)
- TGI (CCRF-CEM leukemia): > 100 µM
- TGI (HOP-92 NSCLC): > 100 µM
- TGI (HT29 colon): > 100 µM
- TGI (KM12 colon): > 100 µM
- TGI (NCI-H460 lung): > 100 µM
- TGI (NCI-H522 lung): > 100 µM
- TGI (RPMI-8226 leukemia): > 100 µM
- TGI (UACC-257 melanoma): > 100 µM

SMILES: COC(=O)CCC(=O)CC1CC(=O)C2CCCN12 (stereo unspecified)
- TGI (CCRF-CEM leukemia): > 100 µM
- TGI (HOP-92 NSCLC): > 100 µM
- TGI (HT29 colon): > 100 µM
- TGI (K-562 leukemia): > 100 µM
- TGI (KM12 colon): > 100 µM
- TGI (NCI-H460 lung): > 100 µM
- TGI (NCI-H522 lung): > 100 µM
- TGI (RPMI-8226 leukemia): > 100 µM
- TGI (UACC-257 melanoma): > 100 µM

SMILES: Cc1ccc(C2(O)CC(c3ccc([N+](=O)[O-])o3)=NN2C(=O)COc2ccc(Cl)cc2)cc1 (stereo unspecified)
- TGI (HOP-92 NSCLC): 24.3 µM
- TGI (HT29 colon): > 38.8 µM
- TGI (K-562 leukemia): > 100 µM
- TGI (KM12 colon): 31.4 µM
- TGI (NCI-H460 lung): 20.7 µM
- TGI (NCI-H522 lung): 34.2 µM
- TGI (RPMI-8226 leukemia): > 21.2 µM
- TGI (UACC-257 melanoma): 17 µM

SMILES: COC(=O)/C(C=O)=C/Sc1ccccc1
- TGI (CCRF-CEM leukemia): > 100 µM
- TGI (HOP-92 NSCLC): > 100 µM
- TGI (HT29 colon): 81.3 µM
- TGI (K-562 leukemia): > 100 µM
- TGI (KM12 colon): > 100 µM
- TGI (NCI-H460 lung): > 100 µM
- TGI (NCI-H522 lung): 24 µM
- TGI (RPMI-8226 leukemia): > 100 µM
- TGI (UACC-257 melanoma): > 100 µM
